Measurements from patent publication US8394789B2, “(Dihydro)pyrrolo[2,1-α]isoquinolines” (MSD Oss B.V., priority 2008, dated 2013).

Experiments:
[1] = target: T1, human FSH receptor (Homo sapiens, UniProt P23945); assay: hFSHRago (CHO luc): agonistic activity at the human FSH receptor expressed in CHO cells, CRE-luciferase reporter; assay type: cell-based; settings: CHO cells stably transfected with human FSH receptor and CRE/luciferase reporter; 4 hours of incubation
T1 construct: expressed in transfected cells
T1 sequence (P23945 18-695): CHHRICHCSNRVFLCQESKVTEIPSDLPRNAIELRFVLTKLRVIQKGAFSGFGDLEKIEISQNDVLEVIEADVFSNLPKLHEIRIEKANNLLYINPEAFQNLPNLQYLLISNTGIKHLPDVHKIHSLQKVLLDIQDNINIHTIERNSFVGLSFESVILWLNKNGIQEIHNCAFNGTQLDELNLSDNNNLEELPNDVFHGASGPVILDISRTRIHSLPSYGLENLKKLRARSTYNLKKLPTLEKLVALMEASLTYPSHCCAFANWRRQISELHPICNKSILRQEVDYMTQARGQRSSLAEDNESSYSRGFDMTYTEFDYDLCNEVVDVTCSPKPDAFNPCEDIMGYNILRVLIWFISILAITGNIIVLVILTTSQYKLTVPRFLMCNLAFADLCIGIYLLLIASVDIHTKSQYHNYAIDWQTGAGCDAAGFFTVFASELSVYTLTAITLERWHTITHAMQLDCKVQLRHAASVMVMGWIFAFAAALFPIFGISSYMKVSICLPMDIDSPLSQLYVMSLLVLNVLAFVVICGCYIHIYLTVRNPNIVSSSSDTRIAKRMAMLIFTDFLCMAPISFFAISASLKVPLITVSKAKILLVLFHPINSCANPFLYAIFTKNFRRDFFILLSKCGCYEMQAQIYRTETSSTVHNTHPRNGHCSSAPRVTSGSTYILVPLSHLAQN

SMILES | EC50 [1] | melting point
COc1cc2c(cc1CCC(C)(C)O)-c1c(-c3cccs3)cc(C(=O)N(C)C(C)(C)C)n1CC2 [Example 92, 9-(3-Hydroxy-3-methyl-butyl)-8-methoxy-1-thiophen-2-yl-5,6-dihydro-pyrrolo[2,1-α]isoquinoline-3-carboxylic acid tert-butyl-methyl-amide] | 6 nM | 153 to 154 °C
COc1cc2c(cc1Oc1cccc(F)c1)-c1c(-c3cccs3)cc(C(=O)N(C)C(C)(C)C)n1CC2 [Example 75, 9-(3-Fluoro-phenoxy)-8-methoxy-1-thiophen-2-yl-5,6-dihydro-pyrrolo[2,1-α]isoquinoline-3-carboxylic acid tert-butyl-methyl-amide] | 16.3 nM | 158 to 159 °C
COc1cc2c(cc1OC(C)C)-c1c(-c3cccs3)cc(C(=O)N3C[C@H]4C[C@@H](NC(C)=O)C[C@H]4C3)n1CC2 [Example 25, N-[-2-(9-isopropoxy-8-methoxy-1-thiophen-2-yl-5,6-dihydro-pyrrolo[2,1-α]isoquinoline-3-carbonyl)-octahydro-cyclopenta[c]pyrrol-5-endo-yl]-acetamide] | 45.4 nM | 106 to 112 °C
COc1cc2c(cc1NC(=O)c1cccnc1)-c1c(-c3cccs3)cc(C(=O)N(C)C(C)(C)C)n1CC2 [Example 102, 8-Methoxy-9-[(pyridine-3-carbonyl)-amino]-1-thiophen-2-yl-5,6-dihydro-pyrrolo[2,1-α]isoquinoline-3-carboxylic acid tert-butyl-methyl-amide] | 13 nM | 223 to 224 °C
COc1cc2c(cc1OC(C)C)-c1c(-c3cccs3)cc(C(=O)N3CC4CC(C3)c3cccc(=O)n3C4)n1CC2 (stereo not drawn) [Example 18, 3-(9-Isopropoxy-8-methoxy-1-thiophen-2-yl-5,6-dihydro-pyrrolo[2,1-α]isoquinoline-3-carbonyl)-1,2,3,4,5,6-hexahydro-1,5-methano-pyrido[1,2-α][1,5]diazocin-8-one] | 37.3 nM | 260 °C
COc1cc2c(cc1C(=O)Nc1nncs1)-c1c(-c3cccs3)cc(C(=O)N(C)C(C)(C)C)n1CC2 [Example 123, 8-Methoxy-1-thiophen-2-yl-5,6-dihydro-pyrrolo[2,1-α]isoquinoline-3,9-dicarboxylic acid 3-(tert-butyl-methyl-amide) 9-[1,3,4]thiadiazol-2-ylamide] | 1 nM | 149 to 152 °C
COc1cc2c(cc1Oc1ncccn1)-c1c(-c3cccs3)cc(C(=O)N(C)C(C)(C)C)n1CC2 [Example 76, N-tert-butyl-8-methoxy-N-methyl-9-(pyrimidin-2-yloxy)-1-(thiophen-2-yl)-5,6-dihydro-pyrrolo[2,1-α]isoquinoline-3-carboxamide] | 18.9 nM | 164 to 165 °C
COc1cc2c(cc1OC(C)C)-c1c(-c3cccs3)cc(C(=O)N3CC4CC(C3)C3CCCC(=O)N3C4)n1CC2 (stereo not drawn) [Example 19, 3-(9-Isopropoxy-8-methoxy-1-thiophen-2-yl-5,6-dihydro-pyrrolo[2,1-α]isoquinoline-3-carbonyl)-decahydro-1,5-methano-pyrido[1,2-α][1,5]diazocin-8-one] | 29.4 nM | 207 to 208 °C
COc1cc2c(cc1OC(C)C)-c1c(-c3cccs3)cc(C(=O)N(C)C(C)(C)CO)n1CC2 [Example 30, 9-Isopropoxy-8-methoxy-1-thiophen-2-yl-5,6-dihydro-pyrrolo[2,1-α]isoquinoline-3-carboxylic acid (2-hydroxy-1,1-dimethyl-ethyl)-methyl-amide] | 1 nM | 150 to 152 °C
COc1cccc(Oc2cc3c(cc2OC)CCn2c(C(=O)N(C)C(C)(C)C)cc(-c4cccs4)c2-3)c1 [Example 74, N-tert-butyl-8-methoxy-9-(3-methoxyphenoxy)-N-methyl-1-(thiophen-2-yl)-5,6-dihydropyrrolo[2,1-α]isoquinoline-3-carboxamide] | 203 nM | 176 to 177 °C
COc1cc2c(cc1OC(C)C)-c1c(-c3cccs3)cc(C(=O)N3CCCN(C(C)=O)CCC3)n1CC2 [Example 16, 1-[5-(9-Isopropoxy-8-methoxy-1-thiophen-2-yl-5,6-dihydro-pyrrolo[2,1-α]isoquinoline-3-carbonyl)-[1,5]diazocan-1-yl]-ethanone] | 5 nM | 153 to 155 °C
COc1cc2c(cc1N)-c1c(-c3cccs3)cc(C(=O)N(C)C(C)(C)C)n1CC2 [Example 95, 9-Amino-8-methoxy-1-thiophen-2-yl-5,6-dihydro-pyrrolo[2,1-α]isoquinoline-3-carboxylic acid tert-butyl-methyl-amide] | 44.8 nM | 
COCc1cc2c(cc1OC)CCn1c(C(=O)N(C)C(C)(C)C)cc(-c3cccs3)c1-2 [Example 121b, 8-Methoxy-9-methoxymethyl-1-thiophen-2-yl-5,6-dihydro-pyrrolo[2,1-α]isoquinoline-3-carboxylic acid tert-butyl-methyl-amide] | 1.6 nM | 
CCN(C(=O)c1cc(-c2ccsc2)c2n1CCc1cc(Br)c(OC)cc1-2)C(C)C [Example 117, 8-Bromo-9-methoxy-1-thiophen-3-yl-5,6-dihydro-pyrrolo[2,1-α]isoquinoline-3-carboxylic acid ethyl-isopropyl-amide] | 1100 nM | 
COc1cc2c(cc1OC)-c1c(Br)cc(C(=O)N3CCCN(C(=O)C4CCC4)CC3)n1CC2 [Example 108c] | 100 nM | 
